Values quoted from earlier work in patent US20050014730A1, “Anti-fungal formulation of triterpene and essential oil” (priority 2003, published 2005).

## C=C(C)[C@@H]1CC[C@]2(CO)CC[C@]3(C)[C@H](CC[C@@H]4[C@@]5(C)CC[C@H](O)C(C)(C)[C@@H]5CC[C@]43C)[C@@H]12 [betulin]
  solubility of betulin in water: about 0.15 mg/l
